What was measured:
Assay in all cases: Test G pre/postemergence
Assay type in all cases: in vivo
[1] = test system: downy bromegrass (Bromus tectorum)
Text: (§1) Seeds or nutlets of plant species selected from bermudagrass (Cynodon dactylon), Surinam grass (Brachiaria decumbens), large crabgrass (Digitaria sanguinalis), green foxtail (Setaria viridis), goosegrass (Eleusine indica), johnsongrass (Sorghum halepense), kochia (Kochia scoparia), pitted morningglory (Ipomoea lacunosa), purple nutsedge (Cyperus rotundus), common ragweed (Ambrosia elatior), black mustard (Brassica nigra), guineagrass (Panicum maximum), dallisgrass (Paspalum dilatatum), barnyardgrass (Echinochloa crus-galli), southern sandbur (Cenchrus echinatus), common sowthistle (Sonchus oleraceous), prickly sida (Sida spinosa), Italian ryegrass (Lolium multiflorum), common purslane (Portulaca oleracea), broadleaf signalgrass (Brachiaria platyphylla), common groundsel (Senecio vulgaris), common chickweed (Stellaria media), tropical spiderwort (Commelina benghalensis), annual bluegrass (Poa annua), downy bromegrass (Bromus tectorum), itchgrass (Rottboellia cochinchinensis), quackgrass (Elytrigia repens), Canada horseweed (Conyza canadensis), field bindweed (Convolvulus arvensis), spanishneedles (Bidens bipinnata), common mallow (Malva sylvestris), and Russian thistle (Salsola kali) were planted and treated preemergence with test chemicals formulated in a non-phytotoxic solvent mixture which included a surfactant.
(§2) At the same time, plants selected from these weed species were treated with postemergence applications of some of the test chemicals formulated in the same manner. Plants ranged in height from 2 to 18 cm (1- to 4-leaf stage) for postemergence treatments. Treated plants and controls were maintained in a greenhouse for 12 to 21 days, after which time all species were compared to controls and visually evaluated.
(§3) Plant response ratings, summarized in Table G, are based on a scale of 0 to 100 where 0 is no effect and 100 is complete control. A dash (-) response means no test result.

[2] = test system: common ragweed (Ambrosia elatior)
Text: as §1, §2, §3

[3] = test system: prickly sida (Sida spinosa)
Text: as §1, §2, §3

[4] = test system: common mallow (Malva sylvestris)
Text: as §1, §2, §3

[5] = test system: field bindweed (Convolvulus arvensis)
Text: as §1, §2, §3

[6] = test system: black mustard (Brassica nigra)
Text: as §1, §2, §3

[7] = test system: Italian ryegrass (Lolium multiflorum)
Text: as §1, §2, §3

[8] = test system: pitted morningglory (Ipomoea lacunosa)
Text: as §1, §2, §3

[9] = test system: quackgrass (Elytrigia repens)
Text: as §1, §2, §3

[10] = test system: goosegrass (Eleusine indica)
Text: as §1, §2, §3

[11] = test system: southern sandbur (Cenchrus echinatus)
Text: as §1, §2, §3

[12] = test system: common chickweed (Stellaria media); details: Preemergence, scale 0-100
Text: as §1, §2, §3

[13] = test system: green foxtail (Setaria viridis)
Text: as §1, §2, §3

[14] = test system: tropical spiderwort (Commelina benghalensis)
Text: as §1, §2, §3

[15] = Postemergence, 8 g ai/ha, scale 0 to 100
[16] = Postemergence, 16 g ai/ha, scale 0 to 100
[17] = Postemergence, 31 g ai/ha, scale 0 to 100
[18] = Postemergence, 62 g ai/ha, scale 0 to 100
[19] = Preemergence, 8 g ai/ha, scale 0-100
[20] = Preemergence, 16 g ai/ha, scale 0-100
[21] = Preemergence, 31 g ai/ha, scale 0-100
[22] = Preemergence, 62 g ai/ha, scale 0-100

With `CCOC(=O)c1nc(-c2ccc(Cl)cc2)nc(N)c1Cl` [Compound 64, ethyl 6-amino-5-chloro-2-(4-chlorophenyl)-4-pyrimidinecarboxylate] the “Plant response rating, Bromegrass, Downy” value [1, 15] was 0, the “Plant response rating, Bromegrass, Downy” value [1, 16] was 20 and the “Plant response rating, Bromegrass, Downy” value [1, 17] was 40. For the same compound, the “Plant response rating, Bromegrass, Downy” value [1, 18] was 75, the “Plant response rating, Bromegrass, Downy” value [1, 19] was 0 and the “Plant response rating, Bromegrass, Downy” value [1, 20] was 0. The “Plant response rating, Bromegrass, Downy” value [1, 21] was 0, the “Plant response rating, Bromegrass, Downy” value [1, 22] was 0 and the “Plant response rating, Ragweed” value [2, 15] was 75. The “Plant response rating, Ragweed” value [2, 16] was 75, the “Plant response rating, Ragweed” value [2, 17] was 100 and the “Plant response rating, Ragweed” value [2, 18] was 100. For the same compound, the “Plant response rating, Ragweed” value [2, 19] was 65, the “Plant response rating, Ragweed” value [2, 20] was 65 and the “Plant response rating, Ragweed” value [2, 21] was 65. For the same compound, the “Plant response rating, Ragweed” value [2, 22] was 95, the “Plant response rating, Prickly Sida” value [3, 15] was 40 and the “Plant response rating, Prickly Sida” value [3, 16] was 65. The “Plant response rating, Prickly Sida” value [3, 17] was 75, the “Plant response rating, Prickly Sida” value [3, 18] was 75 and the “Plant response rating, Prickly Sida” value [3, 19] was 0. For the same compound, the “Plant response rating, Prickly Sida” value [3, 20] was 0, the “Plant response rating, Prickly Sida” value [3, 21] was 30 and the “Plant response rating, Prickly Sida” value [3, 22] was 50. For the same compound, the “Plant response rating, Mallow” value [4, 15] was 65, the “Plant response rating, Mallow” value [4, 16] was 80 and the “Plant response rating, Mallow” value [4, 17] was 90. The “Plant response rating, Mallow” value [4, 18] was 90, the “Plant response rating, Mallow” value [4, 19] was 0 and the “Plant response rating, Mallow” value [4, 21] was 0. The “Plant response rating, Mallow” value [4, 22] was 0, the “Plant response rating, Bindweed, Field” value [5, 15] was 60 and the “Plant response rating, Bindweed, Field” value [5, 16] was 70. The “Plant response rating, Bindweed, Field” value [5, 17] was 80, the “Plant response rating, Bindweed, Field” value [5, 18] was 90 and the “Plant response rating, Bindweed, Field” value [5, 19] was 0. The “Plant response rating, Bindweed, Field” value [5, 20] was 0, the “Plant response rating, Bindweed, Field” value [5, 21] was 0 and the “Plant response rating, Bindweed, Field” value [5, 22] was 65. The “Plant response rating, Black Mustard” value [6, 15] was 0, the “Plant response rating, Black Mustard” value [6, 16] was 0 and the “Plant response rating, Black Mustard” value [6, 17] was 0. The “Plant response rating, Black Mustard” value [6, 18] was 10, the “Plant response rating, Black Mustard” value [6, 19] was 0 and the “Plant response rating, Black Mustard” value [6, 20] was 0. For the same compound, the “Plant response rating, Black Mustard” value [6, 21] was 20, the “Plant response rating, Black Mustard” value [6, 22] was 35 and the “Plant response rating, Ryegrass, Italian” value [7, 15] was 0. The “Plant response rating, Ryegrass, Italian” value [7, 16] was 10, the “Plant response rating, Ryegrass, Italian” value [7, 17] was 20 and the “Plant response rating, Ryegrass, Italian” value [7, 18] was 35. For the same compound, the “Plant response rating, Ryegrass, Italian” value [7, 19] was 0, the “Plant response rating, Ryegrass, Italian” value [7, 20] was 0 and the “Plant response rating, Ryegrass, Italian” value [7, 21] was 0. The “Plant response rating, Ryegrass, Italian” value [7, 22] was 0, the “Plant response rating, Morningglory” value [8, 15] was 0 and the “Plant response rating, Morningglory” value [8, 16] was 0. The “Plant response rating, Morningglory” value [8, 17] was 20, the “Plant response rating, Morningglory” value [8, 18] was 65 and the “Plant response rating, Morningglory” value [8, 19] was 0. For the same compound, the “Plant response rating, Morningglory” value [8, 20] was 0, the “Plant response rating, Morningglory” value [8, 21] was 0 and the “Plant response rating, Morningglory” value [8, 22] was 0. The “Plant response rating, Quackgrass” value [9, 15] was 0, the “Plant response rating, Quackgrass” value [9, 16] was 20 and the “Plant response rating, Quackgrass” value [9, 17] was 20. The “Plant response rating, Quackgrass” value [9, 18] was 35, the “Plant response rating, Quackgrass” value [9, 19] was 0 and the “Plant response rating, Quackgrass” value [9, 20] was 0. The “Plant response rating, Quackgrass” value [9, 21] was 0, the “Plant response rating, Quackgrass” value [9, 22] was 0 and the “Plant response rating, Goosegrass” value [10, 15] was 0. The “Plant response rating, Goosegrass” value [10, 16] was 0, the “Plant response rating, Goosegrass” value [10, 17] was 0 and the “Plant response rating, Goosegrass” value [10, 18] was 20. For the same compound, the “Plant response rating, Goosegrass” value [10, 19] was 0, the “Plant response rating, Goosegrass” value [10, 20] was 0 and the “Plant response rating, Goosegrass” value [10, 21] was 0. For the same compound, the “Plant response rating, Goosegrass” value [10, 22] was 0, the “Plant response rating, Sandbur” value [11, 15] was 0 and the “Plant response rating, Sandbur” value [11, 16] was 0. The “Plant response rating, Sandbur” value [11, 17] was 20, the “Plant response rating, Sandbur” value [11, 18] was 20 and the “Plant response rating, Sandbur” value [11, 19] was 0. The “Plant response rating, Sandbur” value [11, 20] was 0, the “Plant response rating, Sandbur” value [11, 21] was 0 and the “Plant response rating, Sandbur” value [11, 22] was 0. For the same compound, the “Plant response rating, Chickweed” value ([12]; 8 g ai/ha) was 0, the “Plant response rating, Chickweed” value ([12]; 31 g ai/ha) was 0 and the “Plant response rating, Chickweed” value ([12]; 62 g ai/ha) was 0. The “Plant response rating, Foxtail, Green” value [13, 15] was 0, the “Plant response rating, Foxtail, Green” value [13, 16] was 0 and the “Plant response rating, Foxtail, Green” value [13, 17] was 0. For the same compound, the “Plant response rating, Foxtail, Green” value [13, 18] was 0, the “Plant response rating, Foxtail, Green” value [13, 19] was 0 and the “Plant response rating, Foxtail, Green” value [13, 20] was 0. The “Plant response rating, Foxtail, Green” value [13, 21] was 0, the “Plant response rating, Foxtail, Green” value [13, 22] was 0 and the “Plant response rating, Spiderwort” value [14, 15] was 65. For the same compound, the “Plant response rating, Spiderwort” value [14, 16] was 80, the “Plant response rating, Spiderwort” value [14, 17] was 80 and the “Plant response rating, Spiderwort” value [14, 18] was 90. For the same compound, the “Plant response rating, Spiderwort” value [14, 19] was 0, the “Plant response rating, Spiderwort” value [14, 20] was 50 and the “Plant response rating, Spiderwort” value [14, 21] was 75. The “Plant response rating, Spiderwort” value [14, 22] was 90.

From patent publication US8802597B2, “Herbicidal pyrimidines” (E I du Pont de Nemours and Company, priority 2003, dated 2014)
